The target in one experiment is T1, recombinant CYP-21 (Homo sapiens, UniProt P08686).
T1 construct: expressed in transfected cells; host or cells: AD293
T1 sequence (P08686 1-495): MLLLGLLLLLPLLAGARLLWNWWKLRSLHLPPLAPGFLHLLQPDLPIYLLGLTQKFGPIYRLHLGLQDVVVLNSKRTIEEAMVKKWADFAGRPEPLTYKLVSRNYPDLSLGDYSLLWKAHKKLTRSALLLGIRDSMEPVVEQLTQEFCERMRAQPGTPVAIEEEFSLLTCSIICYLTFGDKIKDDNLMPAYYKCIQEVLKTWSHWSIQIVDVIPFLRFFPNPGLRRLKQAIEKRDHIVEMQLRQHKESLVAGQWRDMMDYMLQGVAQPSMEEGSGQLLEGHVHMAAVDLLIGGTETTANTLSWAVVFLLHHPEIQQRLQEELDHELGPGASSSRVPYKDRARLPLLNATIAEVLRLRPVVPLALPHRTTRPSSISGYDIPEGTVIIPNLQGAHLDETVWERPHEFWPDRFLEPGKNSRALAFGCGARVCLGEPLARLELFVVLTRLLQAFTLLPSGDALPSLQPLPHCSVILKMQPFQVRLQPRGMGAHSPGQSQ
Kind of experiment: Cyp21 assay: AD293 cells over-expressing recombinant CYP-21, 11-deoxycortisol formation from 17α-OH Progesterone by LC/MS. In kind it is cell-based. On the procedure: Cyp21 assay protocol: AD293 cells that stably over-express recombinant CYP-21 were seeded in 96 well plates coated with poly D-lysine (10,000 cell per well) and incubated at 37° C. for 24 hours in Dulbecco's Modified Eagle Medium (DMEM) with Fetal Bovine Serum (FBS) that is stripped of hormones by charcoal treatment. The media is then removed, the cells are washed once with Phosphate buffer saline solution, and 50 μL Dulbecco's Modified Eagle Medium (DMEM) with Fetal Bovine Serum (FBS) that is stripped of hormones by charcoal treatment is added. Compounds of the disclosure are then added to the wells in eight concentration spanning 10 μM to 4.5 nM, and the plates are incubated for an additional 60 minutes at 37° C. 17α-OH Progesterone is then added (1.0 μM) and the plates are incubated for an additional 45 minutes at 37° C. After incubation, 50 uL of the supernatant (medium) is transferred into a fresh plate and 150 uL of an acetonitrile solution containing 200 ng/ml of Telmisartan is added. The sample is mixed and then placed in a centrifuge at 2000 rpm for 5 minutes. 100 uL of the supernatant is transferred into a fresh 96 well deep well plate, 100 uL of 1:1 methanol:water was added, the solution was mixed and then analyzed by LC/MS for the presence of 11-deoxycortisol using an Agilent 1200 RRLC/ABSCIEX API4000 LC-MS or Shimadzu Prominance/ABSCIEX API4000 LC-MS to determine IC5os of the compounds of the disclosure.

The target in the next experiment is T2, Cyp19 (Homo sapiens, UniProt P11511).
T2 sequence (P11511 1-503): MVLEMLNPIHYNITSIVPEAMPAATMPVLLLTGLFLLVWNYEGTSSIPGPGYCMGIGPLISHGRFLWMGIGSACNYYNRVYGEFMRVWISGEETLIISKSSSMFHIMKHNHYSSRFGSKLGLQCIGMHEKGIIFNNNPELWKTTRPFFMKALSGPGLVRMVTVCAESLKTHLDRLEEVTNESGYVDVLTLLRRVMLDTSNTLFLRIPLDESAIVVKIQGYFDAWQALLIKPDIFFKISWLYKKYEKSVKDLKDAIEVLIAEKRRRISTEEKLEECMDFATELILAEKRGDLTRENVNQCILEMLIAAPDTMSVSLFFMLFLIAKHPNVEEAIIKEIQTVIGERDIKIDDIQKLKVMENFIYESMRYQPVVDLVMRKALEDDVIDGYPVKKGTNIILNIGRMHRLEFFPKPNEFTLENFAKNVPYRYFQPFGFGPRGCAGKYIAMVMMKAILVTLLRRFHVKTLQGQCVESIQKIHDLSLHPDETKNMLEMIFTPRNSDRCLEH
Kind of experiment: Cyp19 off-target counter screen. Type of experiment: biochemical. The note with it: off-target enzyme. On the technique in general: The purpose of a counterscreen is to sort out artefacts and off-target activity.

In US20160244436A1, “NOVEL FUNCTIONALIZED 5-(PHENOXYMETHYL)-1,3-DIOXANE ANALOGS EXHIBITING CYTOCHROME P450 INHIBITION AND THEIR METHOD OF USE” (CORTENDO AB (PUBL), priority 2013, published 2016) one finds IC50 data, which are given here for one compound.

In general, IC50 refers to the point on the concentration scale where inhibition reaches its midpoint. As to `CC(=O)N1CCN(c2ccc(CO[C@H]3CO[C@](Cn4ccnc4)(c4ccc(Cl)cc4Cl)OC3)cc2)CC1` [drawing 112], the IC50 on recombinant CYP-21 was determined as 208 nM; against Cyp19, 350 nM.
